Holding throughout (assay): growth of human tumour cells (NCI), 48 h
Assay [1] deals with CCRF-CEM leukemia.
The subject of assay [2] is HCT-116 colon.
Assay [3] relates to HOP-92 NSCLC.
Assay [4] concerns IGROV1 ovarian.
Assay [5] deals with MOLT-4 leukemia.
Assay [6] relates to NCI-H226 lung.
Assay [7] concerns NCI-H23 lung.
Assay [8] concerns SNB-19 CNS.
The subject of assay [9] is SR leukemia.
In assay [10] the test system is UO-31 renal.

“And” between values parts separate entries of the source, which are not always exact repeats. Equal entries are not always repeated.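 Five compound concentrations were applied to cells in 96-well plates for 48 hours; endpoints were derived by simple linear interpolation of the resulting dose-response curve. GI50 = concentration required for 50% inhibition of growth. TGI: total growth inhibition.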

Regarding `COc1ccc(C(=O)C(C(=O)C(=O)NC2C3CC4CC(C3)CC2C4)c2ccc(OC)cc2)cc1` (stereo unspecified), the TGI in [1], in [2], in assay [3], in assay [4], in [5] and in [6] was greater than 100 µM throughout. Also, the TGI in assay [7], in assay [8], in [9] and in assay [10] was greater than 100 µM each time.
Regarding `OCC1OC(n2cnc3c2NC=NC[C@H]3O)CC1O` (stereo partly specified), the GI50 in [1], in assay [2], in assay [3], in assay [4], in [5] and in assay [6] was greater than 588 µM each time. Besides, the GI50 in assay [7] and in assay [10] was greater than 588 µM throughout. Further, the TGI in [1] was 492 µM and > 588 µM; in [2], 500 µM and > 588 µM; in assay [3], 454 µM and > 588 µM; in [4], 500 µM and > 588 µM; in assay [5], 469 µM and > 588 µM; in [6], 500 µM and > 588 µM. Besides, the TGI in assay [7] is 500 µM and > 588 µM; in assay [8], 500 µM; in assay [9] it was 443 µM; in assay [10], 500 µM and > 588 µM.
In the case of `Cc1cc(C)c2nc3nc(C)cc(C)c3c(N)c2c1`, the GI50 in assay [1] is 9.33 µM; in assay [2] it was 3.12 µM; in assay [3] it was 3.23 µM; in assay [4], 3.64 µM; in assay [5], 4.7 µM; in [6], 5.4 µM. For the same compound, the GI50 in assay [7] was 5.29 µM; in [8], 8.51 µM; in assay [9], 2.47 µM; in [10], 2.9 µM. Moreover, the TGI in assay [1] worked out at 45.7 µM; in assay [2], 15 µM; in [3] it was 19.7 µM; in assay [4], 28.2 µM; in assay [5], 26.6 µM; in [6], 24.7 µM. The TGI turned out to be 21.4 µM in assay [7], 35.9 µM in [8], 13.3 µM in assay [9] and 16 µM in [10].
For the compound `CCCCCCCCCCCCCCCCCC(=O)OCC(COC1OC(CS(=O)(=O)O)C(O)C(O)C1O)OC(=O)CCCCCCCCCCCCCCCCC` (stereo unspecified), the TGI in [1], in assay [2], in [3], in assay [4], in assay [5] and in assay [6] was greater than 100 µM in each case. Further, the TGI in assay [7] is greater than 100 µM; in assay [8] it was greater than 100 µM; in assay [9], 4.42 µM.
With `O=S(=O)(CCNCc1ccc(-c2ccc3ncnc(Nc4ccc(OCc5cccc(F)c5)c(Cl)c4)c3c2)o1)c1ccccc1`, the GI50 in [1] was greater than 23.1 µM; in [2], greater than 25 µM; in assay [3], 14.9 µM; in assay [4], greater than 23.6 µM; in [5], greater than 25 µM; in assay [6], greater than 25 µM. Besides, the GI50 in assay [7] was greater than 25 µM; in assay [8], greater than 25 µM; in assay [9], greater than 25 µM; in assay [10] it was 9.06 µM. Further, the TGI in assay [1], in assay [2], in assay [3], in [4], in [5] and in assay [6] was greater than 25 µM each time. Besides, the TGI in [7], in assay [8], in [9] and in [10] was greater than 25 µM in each case.
Consider `CN(C)C1=NC2=S(SC(Nc3ccccc3)=N2)S1` (stereo unspecified), for which the TGI is greater than 100 µM in [1]; greater than 100 µM in assay [2]; 59.8 µM in assay [3]; greater than 100 µM in assay [4]; greater than 100 µM in assay [5]; greater than 100 µM in assay [6]. Further, the TGI was greater than 100 µM in assay [7], 97.9 µM in assay [8], greater than 100 µM in assay [9] and 61.1 µM in assay [10].
In the case of `CCN(CC)CCCCNc1ncc2cc(-c3cc(OC)cc(OC)c3)c(NC(=O)NC(C)(C)C)nc2n1`, the GI50 in [1] is 3.96 µM; in assay [2] it was 4.13 µM; in assay [3], 2.11 µM; in assay [4], 3.64 µM; in assay [5], 3.66 µM; in assay [6], 2.57 µM. The GI50 in assay [7] was 11.1 µM; in assay [8] it was 13.7 µM; in assay [9], 2.11 µM; in [10], 1.37 µM. The TGI in assay [1] was 66.1 µM; in assay [2] it was 16.3 µM; in assay [3], 18.4 µM; in assay [4] it was 16.3 µM; in assay [5] it was 19.4 µM; in assay [6], 24.8 µM. For the same compound, the TGI in [7] was 30.1 µM; in assay [8], 28.7 µM; in [9], 5.68 µM; in assay [10], 15.5 µM.
`S=C(c1ccc2c(c1)OCO2)N1CCN(c2cccc(Cl)c2)CC1`: the GI50 in assay [1] is 1.01 µM; in assay [2], 0.454 µM; in assay [3], 95.4 µM; in assay [4], 3.88 µM; in assay [5], 2.28 µM; in assay [6] it was 14 µM. Further, the GI50 in assay [7] is 2.7 µM; in [8] it was 3.13 µM; in assay [9] it was 0.382 µM; in assay [10], 4.3 µM. The TGI is greater than 21.9 µM in assay [1]; 14.5 µM in [2]; greater than 100 µM in assay [3]; greater than 100 µM in [4]; greater than 55.8 µM in assay [5]; greater than 100 µM in assay [6]. Also, the TGI in [7] is greater than 100 µM; in assay [8], greater than 100 µM; in assay [10], greater than 72.5 µM.
On to `NC(=O)Nc1c([N+](=O)[O-])cc(C(F)(F)F)cc1[N+](=O)[O-]`, for which the TGI in assay [1], in [2], in assay [3], in assay [4], in [5] and in assay [6] was greater than 100 µM each time. In addition, the TGI in [7], in assay [8], in [9] and in assay [10] was greater than 100 µM each time.

(Values after PubChem BioAssay (NCI).)
